# Experimental data reported in article PMC7247425, “MRP1-Collateral Sensitizers as a Novel Therapeutic Approach in Resistant Cancer Therapy: An In Vitro and In Vivo Study in Lung Resistant Tumor” (International Journal of Molecular Sciences, 2020).
# Test: Solubility in solvents suitable for in vivo studies
# Assay type: physicochemical
# Text: Of note, the dose of F397 and F421 effective as an anti-tumor agent in vivo was lower than the dosage effective as an anti-proliferative agent in vitro. One possible reason could be that part of the anti-tumor effect of the compounds was mediated by their activity on the tumor microenvironment, not necessarily only on tumor cells. This aspect cannot be evaluated in the viability assays performed in vitro and could lead to an underestimation of the compounds’ potency. Further, the repeated administration of F397 and F421 followed in vivo instead of the single dosage used in vitro can be an additional explanation. […] This could also be the case of F397 and F421 against A549/DX tumors. […] It is also worth noting that the treatment was not toxic for liver, heart, and kidney compared with the control, as shown from the hemato-chemical parameters of the animals (Table 2).
compound,measurement,value
"COc1cc2c(cc1OC)CN(C(=O)CCC1CCCc3c(OC)cccc31)CC2 (stereo not shown) [F400, 6,7-dimethoxy-2-[3-(5-methoxy-1,2,3,4-tetrahydronaphthalen-1-yl)propionyl]-1,2,3,4 tetrahydroisoquinoline]",Solubility in solvents suitable for in vivo studies,could not be dissolved in solvents suitable for in vivo studies
